Test results published in article PMC10176470, “Engaging a Non-catalytic Cysteine Residue Drives Potent and Selective Inhibition of Caspase-6” (Journal of the American Chemical Society, 2023).

What was measured:
Assay in all cases: SILAC proteomics / in-gel fluorescence, competition of probe 13-t labeling by 3a
[1] = biological target: proteins of HEK293T cells transiently overexpressing caspase-6 (Homo sapiens, UniProt P05141); settings: Comp; protein SLC25A5 P05141
Procedure: (§1) Cells were lysed, and heavy and light SILAC lysates were combined in a 1:1 ratio and subjected to CuAAC reaction with azido-biotin to biotinylate probe-labeled proteins for subsequent capture on streptavidin-coated beads. Bead-bound proteins were split for analysis by in-gel fluorescence and tryptic digestion on-bead for LC–MS/MS analysis.
(§2) SILAC labeling and alkyne probe treatment: HEK293T cells were seeded into 8x 15 cm plates at
(§3) a density of 500,000 cells/plate. 4 of these plates were grown in light SILAC DMEM and 4 were
(§4) grown in heavy SILAC DMEM all containing 10% FBS and 4.5g/L glucose. The next day, all 8
(§5) plates were transfected with a pCMV6-Entry plasmid coding for caspase-6-myc-DDK lacking the
(§6) prodomain. After 24 hours, media was replaced with fresh SILAC growth media containing 4.5 g/L
(§7) glucose and 3% FBS. 24 hours later the plates were treated with probe and inhibitor for 1 hours as
(§8) follows: 2 of the light plates were treated with vehicle, 2 light plates and 2 heavy plates treated with
(§9) for 60 minutes. After treatment, media was removed, and cells were washed with 15 mL PBS for 5
(§10) minutes. Cells were then harvested by scraping in cold PBS and lysed in the presence of Roche
(§11) complete protease inhibitors. Lysates were clarified by centrifugation at 10,000xg for 10 minutes and
(§12) the protein in the supernatant was quantified by BCA assay.
(§13) Proteomics assay: 1 mg of each lysate was diluted to 2mg/ml in PBS with Roche complete protease
(§14) inhibitors. To this was added 0.1 mM biotin-azide, 1 mM tris(2-carboxyethyl)phosphine (TCEP), 0.1
(§15) mM Tris((1-benzyl-4-triazolyl)methyl)amine (TBTA) ligand, and 1 mM CuSO4 in a final volume of
(§16) 0.5 mL. The reaction was incubated at room temperature for 1 hour and was vortexed every 15
(§17) minutes. After 1 hour, proteins are precipitated and are pelleted by centrifuging at 16,000xg for 4
(§18) min at 4 °C. The supernatants were discarded, and the pellets were solubilized with 0.5 mL cold
(§19) The cold methanol wash was then repeated, and the washed
(§20) pellets were resuspended in 1 mL of 1.2% SDS and sonicated until clear. The samples were heat
(§21) denatured at 80-90 °C for 5 minutes and any insoluble particles were removed by centrifugation at
(§22) 6,500xg for 5 minutes. The 1 mL supernatant was transferred to a 15 mL conical tubes containing 5
(§23) mL of PBS and 150 µL of washed neutravidin beads were added. The samples were incubated for 2
(§24) hours at 4 °C while rotating, at which point the samples were warmed to resolubilize any precipitated
(§25) SDS. The beads were pelleted by centrifugation at 1400xg for 3 min and washed for 10 minutes with
(§26) the following solutions: 2x 1% NP-40, 2x PBS + 1 M NaCl, and 2x 50 mM ammonium bicarbonate
(§27) (ABC) + 2 M urea. The beads were then transferred to a 1.5 mL microcentrifuge tube using 2x250
(§28) µL 100 mM Tris pH 8.0 + 4 M Guanidium hydrochloride (final volume 500 µL).

[2] = biological target: T1, proteins of HEK293T cells transiently overexpressing caspase-6 (Homo sapiens, UniProt P08243)
T1 sequence (P08243 1-561): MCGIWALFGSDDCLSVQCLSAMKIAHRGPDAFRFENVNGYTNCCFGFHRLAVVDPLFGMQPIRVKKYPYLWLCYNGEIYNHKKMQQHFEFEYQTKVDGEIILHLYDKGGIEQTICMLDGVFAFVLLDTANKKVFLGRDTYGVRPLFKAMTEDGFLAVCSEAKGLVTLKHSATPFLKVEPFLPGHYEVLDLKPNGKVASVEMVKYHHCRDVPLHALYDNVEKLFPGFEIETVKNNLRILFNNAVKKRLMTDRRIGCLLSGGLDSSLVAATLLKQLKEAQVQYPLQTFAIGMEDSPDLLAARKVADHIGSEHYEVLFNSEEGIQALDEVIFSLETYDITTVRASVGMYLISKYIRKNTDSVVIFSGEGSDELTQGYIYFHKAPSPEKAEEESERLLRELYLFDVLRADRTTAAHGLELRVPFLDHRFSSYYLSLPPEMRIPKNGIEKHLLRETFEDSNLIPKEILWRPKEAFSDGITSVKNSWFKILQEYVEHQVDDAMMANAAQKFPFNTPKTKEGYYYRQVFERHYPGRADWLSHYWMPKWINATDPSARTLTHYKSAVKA
Procedure: as §1, §2, §3, §4, §5, §6, §7, §8, §9, §10, §11, §12, §13, §14, §15, §16, §17, §18, §19, §20, §21, §22, §23, §24, §25, §26, §27, §28

[3] = biological target: T2, proteins of HEK293T cells transiently overexpressing caspase-6 (Homo sapiens, UniProt P22234); settings: Comp; protein PAICS P22234
T2 sequence (P22234 1-425): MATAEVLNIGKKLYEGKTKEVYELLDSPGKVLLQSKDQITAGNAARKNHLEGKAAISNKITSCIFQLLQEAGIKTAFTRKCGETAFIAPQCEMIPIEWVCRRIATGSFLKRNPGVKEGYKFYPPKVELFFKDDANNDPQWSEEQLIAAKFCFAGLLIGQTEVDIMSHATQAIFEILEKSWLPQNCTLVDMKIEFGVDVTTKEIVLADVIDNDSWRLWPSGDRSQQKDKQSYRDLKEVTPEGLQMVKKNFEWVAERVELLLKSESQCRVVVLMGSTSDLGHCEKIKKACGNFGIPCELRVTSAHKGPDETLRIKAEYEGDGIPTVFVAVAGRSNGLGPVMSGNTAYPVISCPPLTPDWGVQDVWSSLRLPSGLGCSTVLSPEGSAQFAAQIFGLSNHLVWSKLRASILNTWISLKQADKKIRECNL
Procedure: as §1, §2, §3, §4, §5, §6, §7, §8, §9, §10, §11, §12, §13, §14, §15, §16, §17, §18, §19, §20, §21, §22, §23, §24, §25, §26, §27, §28

[4] = biological target: proteins of HEK293T cells transiently overexpressing caspase-6 (Homo sapiens, UniProt P23526); settings: Comp; protein AHCY P23526
proteins of HEK293T cells transiently overexpressing caspase-6 (Homo sapiens, UniProt P23526), sequence (P23526 whole entry): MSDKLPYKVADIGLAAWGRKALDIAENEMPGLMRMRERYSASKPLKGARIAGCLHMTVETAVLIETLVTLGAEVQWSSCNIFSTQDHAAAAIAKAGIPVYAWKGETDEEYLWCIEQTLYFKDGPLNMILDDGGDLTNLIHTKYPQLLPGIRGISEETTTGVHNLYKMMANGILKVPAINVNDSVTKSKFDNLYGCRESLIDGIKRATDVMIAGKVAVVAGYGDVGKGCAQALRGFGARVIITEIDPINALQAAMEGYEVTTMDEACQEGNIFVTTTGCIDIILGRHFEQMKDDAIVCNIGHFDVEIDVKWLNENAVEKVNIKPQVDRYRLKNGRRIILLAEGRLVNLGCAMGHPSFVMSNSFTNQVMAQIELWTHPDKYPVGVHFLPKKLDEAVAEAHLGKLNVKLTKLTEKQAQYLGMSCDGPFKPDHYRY
Procedure: as §1, §2, §3, §4, §5, §6, §7, §8, §9, §10, §11, §12, §13, §14, §15, §16, §17, §18, §19, §20, §21, §22, §23, §24, §25, §26, §27, §28

[5] = biological target: proteins of HEK293T cells transiently overexpressing caspase-6 (Homo sapiens, UniProt P31946); settings: Comp; protein YWHAB P31946
proteins of HEK293T cells transiently overexpressing caspase-6 (Homo sapiens, UniProt P31946), sequence (P31946 whole entry): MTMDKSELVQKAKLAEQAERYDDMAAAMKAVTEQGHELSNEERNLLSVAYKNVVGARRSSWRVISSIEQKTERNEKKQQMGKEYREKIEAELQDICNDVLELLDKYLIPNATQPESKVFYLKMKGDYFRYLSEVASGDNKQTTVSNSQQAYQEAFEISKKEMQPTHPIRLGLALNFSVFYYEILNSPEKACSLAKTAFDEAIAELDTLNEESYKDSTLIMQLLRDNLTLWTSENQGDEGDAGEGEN
Procedure: as §1, §2, §3, §4, §5, §6, §7, §8, §9, §10, §11, §12, §13, §14, §15, §16, §17, §18, §19, §20, §21, §22, §23, §24, §25, §26, §27, §28

[6] = biological target: proteins of HEK293T cells transiently overexpressing caspase-6 (Homo sapiens, UniProt P38919); settings: Comp; protein EIF4A3 P38919
proteins of HEK293T cells transiently overexpressing caspase-6 (Homo sapiens, UniProt P38919), sequence (P38919 whole entry): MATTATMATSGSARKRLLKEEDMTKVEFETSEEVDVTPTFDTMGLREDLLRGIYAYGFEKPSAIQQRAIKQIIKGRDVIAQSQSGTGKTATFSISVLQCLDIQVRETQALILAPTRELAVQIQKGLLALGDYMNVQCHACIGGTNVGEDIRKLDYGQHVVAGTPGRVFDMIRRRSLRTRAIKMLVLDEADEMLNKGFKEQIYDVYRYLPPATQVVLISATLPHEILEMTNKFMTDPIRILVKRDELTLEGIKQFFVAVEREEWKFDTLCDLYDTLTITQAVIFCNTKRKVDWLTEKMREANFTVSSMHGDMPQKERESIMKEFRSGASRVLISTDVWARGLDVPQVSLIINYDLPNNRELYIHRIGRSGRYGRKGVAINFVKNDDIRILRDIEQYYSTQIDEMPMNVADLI
Procedure: as §1, §2, §3, §4, §5, §6, §7, §8, §9, §10, §11, §12, §13, §14, §15, §16, §17, §18, §19, §20, §21, §22, §23, §24, §25, §26, §27, §28

[7] = biological target: proteins of HEK293T cells transiently overexpressing caspase-6 (Homo sapiens, UniProt P40938); settings: Comp; protein RFC3 P40938
proteins of HEK293T cells transiently overexpressing caspase-6 (Homo sapiens, UniProt P40938), sequence (P40938 whole entry): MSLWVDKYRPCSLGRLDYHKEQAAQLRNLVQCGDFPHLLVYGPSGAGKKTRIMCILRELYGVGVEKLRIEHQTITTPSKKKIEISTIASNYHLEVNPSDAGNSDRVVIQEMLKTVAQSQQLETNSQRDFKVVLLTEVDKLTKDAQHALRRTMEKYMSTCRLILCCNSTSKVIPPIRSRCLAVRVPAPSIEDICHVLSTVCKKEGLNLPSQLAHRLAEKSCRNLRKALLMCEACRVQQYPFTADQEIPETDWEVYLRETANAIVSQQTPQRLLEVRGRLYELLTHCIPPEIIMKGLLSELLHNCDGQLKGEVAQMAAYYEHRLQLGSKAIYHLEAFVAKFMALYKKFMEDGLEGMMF
Procedure: as §1, §2, §3, §4, §5, §6, §7, §8, §9, §10, §11, §12, §13, §14, §15, §16, §17, §18, §19, §20, §21, §22, §23, §24, §25, §26, §27, §28

[8] = biological target: proteins of HEK293T cells transiently overexpressing caspase-6 (Homo sapiens, UniProt P46779); settings: Comp; protein RPL28 P46779
Procedure: as §1, §2, §3, §4, §5, §6, §7, §8, §9, §10, §11, §12, §13, §14, §15, §16, §17, §18, §19, §20, §21, §22, §23, §24, §25, §26, §27, §28

[9] = biological target: proteins of HEK293T cells transiently overexpressing caspase-6 (Homo sapiens, UniProt P52209); settings: Comp; protein PGD P52209
proteins of HEK293T cells transiently overexpressing caspase-6 (Homo sapiens, UniProt P52209), sequence (P52209 whole entry): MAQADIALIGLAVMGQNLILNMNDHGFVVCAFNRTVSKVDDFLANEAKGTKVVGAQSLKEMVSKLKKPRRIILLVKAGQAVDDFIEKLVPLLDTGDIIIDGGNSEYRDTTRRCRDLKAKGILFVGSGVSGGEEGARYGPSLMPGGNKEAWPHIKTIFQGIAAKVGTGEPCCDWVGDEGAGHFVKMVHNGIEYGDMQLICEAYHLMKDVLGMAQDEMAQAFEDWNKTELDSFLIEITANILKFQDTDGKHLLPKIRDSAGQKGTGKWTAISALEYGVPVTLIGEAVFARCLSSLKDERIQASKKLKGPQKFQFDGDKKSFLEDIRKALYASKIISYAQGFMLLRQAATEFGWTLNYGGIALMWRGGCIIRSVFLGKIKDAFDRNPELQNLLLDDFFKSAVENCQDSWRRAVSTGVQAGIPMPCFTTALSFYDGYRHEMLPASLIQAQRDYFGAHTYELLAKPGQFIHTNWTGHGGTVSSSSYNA
Procedure: as §1, §2, §3, §4, §5, §6, §7, §8, §9, §10, §11, §12, §13, §14, §15, §16, §17, §18, §19, §20, §21, §22, §23, §24, §25, §26, §27, §28

[10] = biological target: proteins of HEK293T cells transiently overexpressing caspase-6 (Homo sapiens, UniProt P60842); settings: Comp; protein EIF4A1 P60842
proteins of HEK293T cells transiently overexpressing caspase-6 (Homo sapiens, UniProt P60842), sequence (P60842 whole entry): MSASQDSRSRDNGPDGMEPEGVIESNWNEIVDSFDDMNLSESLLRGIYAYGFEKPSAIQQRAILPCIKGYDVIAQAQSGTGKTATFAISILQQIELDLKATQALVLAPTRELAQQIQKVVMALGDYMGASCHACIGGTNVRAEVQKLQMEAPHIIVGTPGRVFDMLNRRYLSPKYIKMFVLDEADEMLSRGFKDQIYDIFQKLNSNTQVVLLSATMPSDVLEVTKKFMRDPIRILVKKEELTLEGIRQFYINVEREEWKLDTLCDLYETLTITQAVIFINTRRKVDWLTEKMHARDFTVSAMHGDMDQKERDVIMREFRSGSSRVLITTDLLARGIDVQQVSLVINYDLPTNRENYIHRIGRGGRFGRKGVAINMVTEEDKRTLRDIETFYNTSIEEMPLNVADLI
Procedure: as §1, §2, §3, §4, §5, §6, §7, §8, §9, §10, §11, §12, §13, §14, §15, §16, §17, §18, §19, §20, §21, §22, §23, §24, §25, §26, §27, §28

[11] = biological target: proteins of HEK293T cells transiently overexpressing caspase-6 (Homo sapiens, UniProt P62888); settings: Comp; protein RPL30 P62888
Procedure: as §1, §2, §3, §4, §5, §6, §7, §8, §9, §10, §11, §12, §13, §14, §15, §16, §17, §18, §19, §20, §21, §22, §23, §24, §25, §26, §27, §28

[12] = biological target: proteins of HEK293T cells transiently overexpressing caspase-6 (Homo sapiens, UniProt P63261); settings: Comp; protein ACTG1 P63261
Procedure: as §1, §2, §3, §4, §5, §6, §7, §8, §9, §10, §11, §12, §13, §14, §15, §16, §17, §18, §19, §20, §21, §22, §23, §24, §25, §26, §27, §28

[13] = biological target: proteins of HEK293T cells transiently overexpressing caspase-6 (Homo sapiens, UniProt P83731); settings: Comp; protein RPL24 P83731
Procedure: as §1, §2, §3, §4, §5, §6, §7, §8, §9, §10, §11, §12, §13, §14, §15, §16, §17, §18, §19, §20, §21, §22, §23, §24, §25, §26, §27, §28

[14] = biological target: proteins of HEK293T cells transiently overexpressing caspase-6 (Homo sapiens, UniProt Q14566); settings: Comp; protein MCM6 Q14566
proteins of HEK293T cells transiently overexpressing caspase-6 (Homo sapiens, UniProt Q14566), sequence (Q14566 whole entry): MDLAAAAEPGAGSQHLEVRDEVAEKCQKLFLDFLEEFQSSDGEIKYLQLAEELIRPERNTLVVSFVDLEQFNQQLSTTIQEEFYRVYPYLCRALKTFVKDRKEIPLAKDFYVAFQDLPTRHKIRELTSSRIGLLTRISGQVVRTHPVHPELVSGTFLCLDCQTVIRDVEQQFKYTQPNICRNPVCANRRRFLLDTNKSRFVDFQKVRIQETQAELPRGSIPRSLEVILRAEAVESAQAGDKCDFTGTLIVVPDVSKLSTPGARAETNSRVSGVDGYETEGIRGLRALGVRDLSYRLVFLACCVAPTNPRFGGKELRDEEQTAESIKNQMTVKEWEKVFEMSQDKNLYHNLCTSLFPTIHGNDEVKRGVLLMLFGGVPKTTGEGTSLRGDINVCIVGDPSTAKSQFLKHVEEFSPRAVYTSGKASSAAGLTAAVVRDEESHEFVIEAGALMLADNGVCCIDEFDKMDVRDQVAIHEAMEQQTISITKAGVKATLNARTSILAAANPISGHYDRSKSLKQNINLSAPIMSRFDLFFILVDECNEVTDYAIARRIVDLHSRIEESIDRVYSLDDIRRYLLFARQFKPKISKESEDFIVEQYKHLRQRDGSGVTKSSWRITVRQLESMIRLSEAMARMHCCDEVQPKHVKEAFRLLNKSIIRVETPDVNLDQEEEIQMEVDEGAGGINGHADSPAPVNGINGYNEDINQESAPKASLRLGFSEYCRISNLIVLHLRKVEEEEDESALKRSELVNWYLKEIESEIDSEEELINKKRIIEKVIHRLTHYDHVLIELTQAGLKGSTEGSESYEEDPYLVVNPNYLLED
Procedure: as §1, §2, §3, §4, §5, §6, §7, §8, §9, §10, §11, §12, §13, §14, §15, §16, §17, §18, §19, §20, §21, §22, §23, §24, §25, §26, §27, §28

[15] = biological target: proteins of HEK293T cells transiently overexpressing caspase-6 (Homo sapiens, UniProt Q9P258); settings: Comp; protein RCC2 Q9P258
proteins of HEK293T cells transiently overexpressing caspase-6 (Homo sapiens, UniProt Q9P258), sequence (Q9P258 whole entry): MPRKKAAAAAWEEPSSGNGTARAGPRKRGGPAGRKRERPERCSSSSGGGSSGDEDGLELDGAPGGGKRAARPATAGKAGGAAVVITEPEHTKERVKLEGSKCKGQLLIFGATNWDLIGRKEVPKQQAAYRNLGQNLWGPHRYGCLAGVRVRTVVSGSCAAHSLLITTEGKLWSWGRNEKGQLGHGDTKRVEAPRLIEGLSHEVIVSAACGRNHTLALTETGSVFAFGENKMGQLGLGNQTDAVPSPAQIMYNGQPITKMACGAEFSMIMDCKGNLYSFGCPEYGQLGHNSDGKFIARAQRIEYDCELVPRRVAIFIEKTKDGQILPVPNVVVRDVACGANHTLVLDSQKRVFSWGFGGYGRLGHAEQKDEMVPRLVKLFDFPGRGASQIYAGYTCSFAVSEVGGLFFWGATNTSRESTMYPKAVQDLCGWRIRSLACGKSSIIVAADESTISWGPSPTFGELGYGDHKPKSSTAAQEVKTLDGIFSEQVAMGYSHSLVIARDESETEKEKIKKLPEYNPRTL
Procedure: as §1, §2, §3, §4, §5, §6, §7, §8, §9, §10, §11, §12, §13, §14, §15, §16, §17, §18, §19, §20, §21, §22, §23, §24, §25, §26, §27, §28

[16] = protein ASNS (P08243), Exp Comp, analysis C6, p 0.1250, 4 peptides

proteins of HEK293T cells transiently overexpressing caspase-6 (Homo sapiens, UniProt P05141), sequence (P05141 whole entry): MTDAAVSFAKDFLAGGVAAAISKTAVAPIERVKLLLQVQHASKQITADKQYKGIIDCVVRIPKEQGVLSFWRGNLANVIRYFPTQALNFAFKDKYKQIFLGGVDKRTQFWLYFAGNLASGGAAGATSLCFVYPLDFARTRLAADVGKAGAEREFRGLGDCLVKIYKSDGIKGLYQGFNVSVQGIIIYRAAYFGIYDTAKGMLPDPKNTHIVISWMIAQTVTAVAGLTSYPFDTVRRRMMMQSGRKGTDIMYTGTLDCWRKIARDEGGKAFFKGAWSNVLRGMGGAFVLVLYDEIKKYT

How did the enrich.exp.med [1] turn out when `C=CS(=O)(=O)N1C[C@H](C(=O)Nc2ccc(OC(F)(F)F)cc2)C[C@@H](c2ccccc2)C1` [3a] was run?
Its enrich.exp.med is 0.6101.

What about the enrich.exp.med ([2]; Comp, protein ASNS P08243) of the same compound?
The enrich.exp.med was 1.12.

What about the enrich.exp.med.lin [2, 16] of the same compound?
The enrich.exp.med.lin was 2.174.

What about the enrich.exp.med.log2 [2, 16] of the same compound?
The enrich.exp.med.log2 was 1.12.

What about the enrich.exp.med [3] of the same compound?
Its enrich.exp.med is 0.7148.

What about the enrich.exp.med [4] of the same compound?
Its enrich.exp.med is 0.6961.

What about the enrich.exp.med [5] of the same compound?
The enrich.exp.med was 0.6188.

And the enrich.exp.med [6]?
The enrich.exp.med was 0.7351.

What about the enrich.exp.med [7] of the same compound?
The enrich.exp.med was 0.6326.

And the enrich.exp.med [8]?
Its enrich.exp.med is 0.6162.

What about the enrich.exp.med [9] of the same compound?
The enrich.exp.med was 0.9271.

And the enrich.exp.med [10]?
Its enrich.exp.med is 0.5985.

And the enrich.exp.med [11]?
The enrich.exp.med was 0.6036.

What about the enrich.exp.med [12] of the same compound?
Its enrich.exp.med is 0.7588.

And the enrich.exp.med [13]?
The enrich.exp.med was 0.668.

And the enrich.exp.med [14]?
The enrich.exp.med was 0.8484.

And the enrich.exp.med [15]?
Its enrich.exp.med is 0.5769.
